From patent publication US20240317760A1, “TRK KINASE INHIBITOR COMPOUND AND USE THEREOF” (HENAN MEDINNO PHARMACEUTICAL TECHNOLOGY CO., LTD., priority 2021, published 2024)

How the values were obtained:
Type in all cases: biochemical
[1] = biological target: T1, TRKA (Homo sapiens, UniProt P04629); experiment: Determination of inhibitory activity against TRKA kinase (ADP-Glo Kinase Assay); details: ATP 5 μM, Poly (4:1 Glu, Tyr) Peptide 0.03 mg/ml
T1 construct: purchased Carna 08-186
Procedure: (§1) Assay: Determination of Inhibitory Activity Against TRKA/B/C Kinases
(§2) 1× volume of 5× kinase reaction buffer and 4× volume of water; 5 mM MgCl2; and 1 mM DTT.
(§3) • 1). Gradiently diluting a compound 4-fold in a dilution plate with DMSO, with a starting compound concentration of 1000 nM. • 2). Diluting the compound 50-fold into 1× kinase reaction buffer and shaking it on a shaker for 20 minutes. • 3). Formulating 2× kinase with 1× of enzyme reaction buffer. • 4). Adding 2 μl kinase (formulated in step 3) to each well of the reaction plate. • 5). Adding 1 μl of the compound diluted in buffer to each well, sealing the plate with a sealing membrane and centrifuging the plate at 1000 g for 30 seconds and leaving it at room temperature for 10 minutes. • 6). Formulating 4×ATP & sub mixture with 1× enzyme reaction buffer and adding 1 μl of 4×ATP & sub mixture to the reaction plate. • 7). Sealing the plate with a sealing membrane and centrifuging the plate at 1000 g for 30 seconds and allowing it to react at room temperature for 60 minutes. • 8). Transferring 4 μl of ADP-Glo to 384 reaction plate and centrifuging the plate at 1000 rpm/min for 1 min, and then incubating it at 25° C. for 40 min. • 9). Transferring 8 μl of Detection solution to 384 reaction plate and centrifuging the plate at 1000 rpm/min for 1 min and incubating it at 25° C. for 40 min. • 10) Reading the RLU (Relative luminescence unit) signal using a Biotek multifunctional plate reader. The signal intensity was used to characterize the activity degree of kinase.
(§4) The IC50 (half inhibition concentration) of a compound was obtained using the following non-linear fitting equation, wherein data analysis was performed using Graphpad 6.0 software.
(§5) Y=Bottom+(Top−Bottom)/(1+10^((Log IC50−X)*Hill Slope)) • X: log value of compound concentration; and Y: inhibition rate (% inhibition)
(§6) Data were exported from Biotek and analyzed manually. The ratios were converted to inhibition rates and IC50 was calculated by Prism GraphPad 6.0 from the inhibition rates. IC50 was calculated again by the ratios to verify accuracy of the results.

[2] = biological target: T2, TRKB (Homo sapiens, UniProt Q16620); experiment: Determination of inhibitory activity against TRKB kinase (ADP-Glo Kinase Assay); details: ATP 20 μM, Poly (4:1 Glu, Tyr) Peptide 0.03 mg/ml
T2 construct: purchased SignalChem N17-11G
T2 sequence (Q16620 32-822): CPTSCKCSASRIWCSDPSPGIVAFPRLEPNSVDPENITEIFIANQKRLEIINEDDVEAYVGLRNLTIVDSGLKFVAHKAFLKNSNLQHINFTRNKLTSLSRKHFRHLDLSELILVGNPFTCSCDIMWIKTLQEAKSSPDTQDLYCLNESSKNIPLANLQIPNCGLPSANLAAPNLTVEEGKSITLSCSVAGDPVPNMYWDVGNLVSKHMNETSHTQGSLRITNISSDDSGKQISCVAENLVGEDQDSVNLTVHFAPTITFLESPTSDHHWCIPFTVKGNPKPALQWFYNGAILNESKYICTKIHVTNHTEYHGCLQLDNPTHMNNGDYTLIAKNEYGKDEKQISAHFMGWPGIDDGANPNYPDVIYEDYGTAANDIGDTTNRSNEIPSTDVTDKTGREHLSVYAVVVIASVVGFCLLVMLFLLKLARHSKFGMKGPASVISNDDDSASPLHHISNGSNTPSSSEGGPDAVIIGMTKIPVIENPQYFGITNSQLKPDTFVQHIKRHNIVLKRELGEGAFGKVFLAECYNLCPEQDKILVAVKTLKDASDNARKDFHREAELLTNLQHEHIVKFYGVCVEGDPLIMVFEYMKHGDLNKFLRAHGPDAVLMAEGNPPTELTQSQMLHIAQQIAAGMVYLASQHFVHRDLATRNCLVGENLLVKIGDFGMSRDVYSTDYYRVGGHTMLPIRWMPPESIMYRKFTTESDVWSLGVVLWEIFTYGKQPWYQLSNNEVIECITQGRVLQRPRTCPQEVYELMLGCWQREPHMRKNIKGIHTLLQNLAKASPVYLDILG
Procedure: as §1, §2, §3, §4, §5, §6

[3] = biological target: T3, TRKC (Homo sapiens, UniProt Q16288); experiment: Determination of inhibitory activity against TRKC kinase (ADP-Glo Kinase Assay); details: ATP 5 μM, Poly (4:1 Glu, Tyr) Peptide 0.03 mg/ml
T3 construct: purchased Carna 08-196
T3 sequence (Q16288 32-839): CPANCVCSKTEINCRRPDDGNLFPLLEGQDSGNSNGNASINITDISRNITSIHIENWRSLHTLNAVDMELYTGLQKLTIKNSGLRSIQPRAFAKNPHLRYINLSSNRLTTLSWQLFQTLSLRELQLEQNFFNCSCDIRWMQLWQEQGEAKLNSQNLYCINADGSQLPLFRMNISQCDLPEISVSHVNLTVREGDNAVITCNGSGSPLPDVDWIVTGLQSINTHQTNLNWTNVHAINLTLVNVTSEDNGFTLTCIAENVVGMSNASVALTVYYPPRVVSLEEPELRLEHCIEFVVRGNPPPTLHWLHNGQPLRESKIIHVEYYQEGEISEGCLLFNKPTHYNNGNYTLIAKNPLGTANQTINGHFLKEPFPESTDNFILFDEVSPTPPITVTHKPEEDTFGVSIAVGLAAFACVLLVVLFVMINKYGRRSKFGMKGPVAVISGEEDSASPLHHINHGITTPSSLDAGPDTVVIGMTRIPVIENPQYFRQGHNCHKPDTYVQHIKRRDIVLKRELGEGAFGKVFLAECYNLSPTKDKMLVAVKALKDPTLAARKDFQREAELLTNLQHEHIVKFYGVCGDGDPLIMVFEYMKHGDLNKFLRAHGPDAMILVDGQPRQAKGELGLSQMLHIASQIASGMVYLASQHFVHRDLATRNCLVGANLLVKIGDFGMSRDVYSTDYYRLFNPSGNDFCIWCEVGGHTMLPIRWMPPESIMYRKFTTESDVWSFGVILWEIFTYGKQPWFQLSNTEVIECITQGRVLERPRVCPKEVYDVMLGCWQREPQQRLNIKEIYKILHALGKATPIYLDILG
Procedure: as §1, §2, §3, §4, §5, §6

T1 sequence (P04629 33-796): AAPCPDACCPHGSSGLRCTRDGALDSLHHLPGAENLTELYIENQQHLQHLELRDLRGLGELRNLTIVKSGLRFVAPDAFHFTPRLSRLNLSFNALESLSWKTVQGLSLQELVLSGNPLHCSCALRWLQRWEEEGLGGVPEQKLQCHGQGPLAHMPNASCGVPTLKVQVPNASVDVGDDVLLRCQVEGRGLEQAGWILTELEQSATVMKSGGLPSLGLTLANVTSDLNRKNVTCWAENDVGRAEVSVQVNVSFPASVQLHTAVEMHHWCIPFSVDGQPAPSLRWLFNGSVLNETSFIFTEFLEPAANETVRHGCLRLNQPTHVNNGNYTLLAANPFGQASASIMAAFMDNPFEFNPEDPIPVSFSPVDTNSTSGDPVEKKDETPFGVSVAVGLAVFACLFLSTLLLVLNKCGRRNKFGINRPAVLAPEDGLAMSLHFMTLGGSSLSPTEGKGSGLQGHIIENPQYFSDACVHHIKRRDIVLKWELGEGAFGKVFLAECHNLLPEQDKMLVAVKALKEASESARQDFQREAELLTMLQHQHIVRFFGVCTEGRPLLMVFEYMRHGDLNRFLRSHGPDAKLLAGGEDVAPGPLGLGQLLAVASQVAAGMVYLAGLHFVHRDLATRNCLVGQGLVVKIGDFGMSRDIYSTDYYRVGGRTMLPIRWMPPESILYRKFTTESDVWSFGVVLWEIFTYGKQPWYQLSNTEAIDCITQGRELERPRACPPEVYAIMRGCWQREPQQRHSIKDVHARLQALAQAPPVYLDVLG

| Compound | IC50 [1] [nM] | IC50 [2] [nM] | IC50 [3] [nM] |
| --- | --- | --- | --- |
| CC(Oc1ccc2[nH]nc(-c3nc4c([nH]3)CN(CC3CCCN3)C4)c2c1)c1cc(F)cc(F)c1 (stereo not drawn) [Example 42, 5-(1-(3,5-Difluorophenyl)ethoxy)-3-(5-(pyrrolidin-2-ylmethyl)-1,4,5,6-tetrahydropyrrolo[3,4-d]imidazol-2-yl)-1H-indazole] | 1 | 1.1 | 1.5 |
| CC(Oc1ccc2[nH]nc(-c3nc4c([nH]3)CN(C3CCC(N(C)C)C3)C4)c2c1)c1cc(F)cc(F)c1 (stereo not drawn) [Example 46, 3-(2-(5-(1-(3,5-Difluorophenyl)ethoxy)-1H-indazol-3-yl)-4,6-dihydropyrrolo[3,4-d]imidazol-5(1H)-yl)-N,N-dimethyl cyclopentan-1-amine] | 10.6 | 1.4 | 2.9 |
| CCC(Oc1ccc2[nH]nc(-c3nc4c([nH]3)CN(CC3CCN(C)CC3)C4)c2c1)c1cc(F)cc(F)c1 (stereo not drawn) [Example 48, 5-(1-(3,5-Difluorophenyl)propoxy)-3-(5-((1-methylpiperidin-4-yl)methyl)-1,4,5,6-tetrahydropyrrolo[3,4-d]imidazol-2-yl)-1 H-indazole] | 4.5 | 4.2 | 6.1 |

More lines, in order of falling IC50 [1], values ahead:

| IC50 [1] [nM] | IC50 [2] [nM] | IC50 [3] [nM] | Compound |
| --- | --- | --- | --- |
| 14.2 | 8.9 | 8.6 | CC(Oc1ccc2[nH]nc(-c3nc4c([nH]3)CN(CC3CCN(C)CC3)C4)c2c1)c1cc(F)cc(C#N)c1 (stereo not drawn) [Example 47] |
| 1.9 | 1.4 | 2.9 | CCN1CCCC(N2Cc3nc(-c4n[nH]c5ccc(OC(C)c6cc(F)cc(F)c6)cc45)[nH]c3C2)C1 (stereo not drawn) [Example 43, 5-(1-(3,5-Difluorophenyl)ethoxy)-3-(5-(1-ethylpiperidin-3-yl)-1,4,5,6-tetrahydropyrrolo[3,4-d]imidazol-2-yl)-1H indazole] |
| 1.6 | 0.83 | 1.7 | CC(Oc1ccc2[nH]nc(-c3nc4c([nH]3)CN(C3CCCC(N(C)C)C3)C4)c2c1)c1cc(F)cc(F)c1 (stereo not drawn) [Example 45, 3-(2-(5-(1-(3,5-difluorophenyl)ethoxy)-1H-indazol-3-yl)-4,6-dihydropyrrolo[3,4-d]imidazol-5(1H)-yl)-N,N-dimethyl cyclohexan-1-amine] |
| 1.4 | 0.64 | 1.8 | CC(Oc1ccc2[nH]nc(-c3nc4c([nH]3)CN(C3CC(N(C)C)C3)C4)c2c1)c1cc(F)cc(F)c1 (stereo not drawn) [Example 44] |
